According to paper PMC7996328, “Design, Synthesis, and Biological Evaluation of a Series of 5- and 7-Hydroxycoumarin Derivatives as 5-HT1A Serotonin Receptor Antagonists” (Pharmaceuticals, 2021):
“Also recorded” adds a separate entry of the source. Where two headings read alike, the source gives them in different places.

Assays:
5-HT1A receptor = target: T1, 5-HT1A receptor (Rattus norvegicus, UniProt P19327); test: Antagonist activity for the 5-HT1A receptor, [35S]GTPγS assay in hippocampal homogenates; assay type: biochemical; settings: 8-OH-DPAT 1.4 × 10^−7 M, mean ± SEM; for EC50 / EC50 (nM ± SEM): antagonistic activity
T1 construct: Hippocampal homogenates (15 μg/mL) were added to each tube as the 5-HT1A receptor source; from tissue; host or cells: rat hippocampus (male Sprague-Dawley), membrane homogenate
T1 sequence (P19327 1-422): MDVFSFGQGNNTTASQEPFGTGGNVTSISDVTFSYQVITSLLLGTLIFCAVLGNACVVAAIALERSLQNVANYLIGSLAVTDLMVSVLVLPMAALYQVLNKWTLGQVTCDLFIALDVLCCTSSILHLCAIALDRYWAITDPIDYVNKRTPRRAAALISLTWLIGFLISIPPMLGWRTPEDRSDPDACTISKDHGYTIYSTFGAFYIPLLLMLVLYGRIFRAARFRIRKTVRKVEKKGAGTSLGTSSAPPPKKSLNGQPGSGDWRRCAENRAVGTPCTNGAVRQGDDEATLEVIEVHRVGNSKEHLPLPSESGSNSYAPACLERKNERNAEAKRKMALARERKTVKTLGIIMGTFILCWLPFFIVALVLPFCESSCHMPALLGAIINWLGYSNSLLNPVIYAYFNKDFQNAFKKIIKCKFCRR
Procedure: Male Sprague–Dawley rats were decapitated, their brains removed, and placed on ice. Hippocampi were dissected and homogenized with a glass homogenizer in 30 vol. ice-cold TED buffer (50 mM Tris-HCl, 1 mM EDTA, 1mM dithiotheritol, pH 7.4). Next, the homogenate was centrifuged at 21,000× g for 30 min at 4 °C. […] The suspension was centrifuged again at 21,000× g for 30 min at 4 °C. The pellet was resuspended in 30 vol. TED buffer (pH 7.4) and the centrifugation step was repeated. The final pellet was suspended in 10 vol 50 mM Tris-HCl (pH 7.4) and stored at −80 °C until use.
Serial dilutions of the compounds tested (10^−10–10^−5 M) were incubated in triplicate with 0.8 nM [^35S]GTPγS in assay buffer (50 mM Tris-HCl, pH = 7.4, 1 mM EGTA, 3 mM MgCl2, 100 mM NaCl, 30 µM GDP) and 8-OH-DPAT (final concentration 1.4 × 10^−7 M) in the final assay volume of 250 µL. Hippocampal homogenates (15 μg/mL) were added to each tube as the 5-HT1A receptor source. […] Non-specific binding was determined with 10 µM of unlabeled GTPγS. […] Next, 96-well Unifilter® Plates (Perkin Elmer, Waltham, MA, USA) were presoaked for 1 h with 50 mM Tris-HCl (pH = 7.4) before harvesting. The reaction was terminated by vacuum filtration onto filter plates with the FilterMate Harvester® (Perkin Elmer, Waltham, MA, USA). The samples were then rapidly washed with 2 mL of 50 mM Tris-HCl (pH = 7.4) buffer. Filter plates were dried for 2 h at 50 °C. After drying, 45 µL of EcoScint-20 scintillant (Perkin Elmer) was added to every well. Radioactivity was counted in a Trilux MicroBeta^2 counter (Perkin Elmer). Data were analyzed with GraphPad Prism 5.0 software (GraphPad Software, San Diego, CA, USA, www.graphpad.com). Curves were fitted with a one-site non-linear regression model. Efficacy (Emax) and half maximal inhibitory concentration (IC50) were calculated from the Cheng–Prusoff equation and expressed as means ± SEM.

5-HT2A receptor = target: T2, 5-HT2A receptor (Rattus norvegicus, UniProt P14842); test: 5-HT2A competition binding assay, [3H]ketanserin, frontal cortex homogenates; settings: [3H]ketanserin 1 nM
T2 construct: from tissue; host or cells: rat frontal cortex (male SD), membrane homogenate
Procedure: Male SD rats were decapitated and their brains removed and placed on ice. Frontal cortices were homogenized with a glass homogenizer in 30 vol ice-cold homogenization buffer (50 mM Tris-HCl. 1 mM EDTA. 5 mM MgCl2. pH 7.4). Next, the homogenate was centrifuged at 20,000× g for 15 min at 4 °C. […] The suspension was again centrifuged at 20,000× g for 15 min at 4 °C. The pellet was resuspended in 10 vol. 50 mM Tris-HCl (pH 7.4) and the centrifugation step was repeated. The final pellet was suspended in 10 vol 50 mM Tris-HCl (pH 7.4) and stored at −80 °C.
Non-specific binding was determined in the presence of 10 μM mianserin. After incubation, the reaction mixture was deposited onto UniFilter-96 GF/B plates with the aid of a FilterMate-96 Harvester. Filter plates were presoaked beforehand with 0.4% PEI for 1 h. Next, each filter well was washed with 1.75 mL of 50 mM Tris-HCl (pH 7.4) and left to dry on a heating block set to 50 °C for 2 h. Then 45 µL of Microscint-20 scintillation fluid was added to each filter well and left to equilibrate overnight. Filter-bound radioactivity was counted in a MicroBeta^2 Microplate Counter. Binding curves were fitted with one site non-linear regression. Affinity was presented as the inhibitory constant (pKi ± SEM and Ki ± SEM) from two or three separate experiments.

[1] = read-out: Ki (nM ± SEM) (converted)
[2] = read-out: pKi (M ± SEM) (converted)

T2 sequence (P14842 whole entry): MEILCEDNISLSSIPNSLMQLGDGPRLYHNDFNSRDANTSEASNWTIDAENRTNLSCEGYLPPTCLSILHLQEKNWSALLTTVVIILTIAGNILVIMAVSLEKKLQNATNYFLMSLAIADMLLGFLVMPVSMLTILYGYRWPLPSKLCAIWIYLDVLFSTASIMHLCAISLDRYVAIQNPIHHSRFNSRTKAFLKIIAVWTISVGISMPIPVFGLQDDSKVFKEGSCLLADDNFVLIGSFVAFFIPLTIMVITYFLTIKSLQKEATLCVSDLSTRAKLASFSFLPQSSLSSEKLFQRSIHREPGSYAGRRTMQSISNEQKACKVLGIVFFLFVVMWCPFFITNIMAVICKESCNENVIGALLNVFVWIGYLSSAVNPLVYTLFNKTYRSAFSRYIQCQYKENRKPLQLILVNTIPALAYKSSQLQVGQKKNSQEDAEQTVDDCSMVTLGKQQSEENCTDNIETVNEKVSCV

SMILES	melting point [°C]	IC50 (5-HT1A receptor) [nM]	EC50 (5-HT1A receptor) [nM]	Ki (5-HT2A receptor; [1]) [nM]	Ki (5-HT2A receptor; [2]) [nM]	pIC50 ± SEM (5-HT1A receptor)	EC50 (nM ± SEM) (5-HT1A receptor)
Cc1cc(OCCCCCBr)c2c(C)cc(=O)oc2c1 [Compound 1, 5-(5-bromopentyloxy)-4,7-dimethyl-2H-chromen-2-one]	99 to 101						
COc1ccccc1N1CCN(CCCCCOc2cc(C)cc3oc(=O)cc(C)c23)CC1 [Compound 1a, 5-(5-(4-(2-methoxyphenyl)piperazin-1-yl)pentyloxy)-4,7-dimethyl-2H-chromen-2-one]	66 to 68	31.6	29.4 ± 7.3	776 ± 187	644		
Cc1cc(OCCCCCN2CCN(c3ccccc3F)CC2)c2c(C)cc(=O)oc2c1 [Compound 1b, 5-(5-(4-(2-fluorophenyl)piperazin-1-yl)pentyloxy)-4,7-dimethyl-2H-chromen-2-one]	106 to 108	1000	980 ± 207	1260 ± 479			
COc1cccc(N2CCN(CCCCCOc3cc(C)cc4oc(=O)cc(C)c34)CC2)c1 [Compound 1c, 5-(5-(4-(3-methoxyphenyl)piperazin-1-yl)pentyloxy)-4,7-dimethyl-2H-chromen-2-one]	103 to 105	1580	1700 ± 358	610 ± 139			
Cc1cc(OCCCCCN2CCN(c3cccc(F)c3)CC2)c2c(C)cc(=O)oc2c1 [Compound 1e, 5-(5-(4-(3-fluorophenyl)piperazin-1-yl)pentyloxy)-4,7-dimethyl-2H-chromen-2-one]	101 to 102	25100	24300	2350 ± 673			
Cc1cc(OCCCCCN2CCN(c3ccccc3Br)CC2)c2c(C)cc(=O)oc2c1 [Compound 1f, 5-(5-(4-(2-bromophenyl)piperazin-1-yl)pentyloxy)-4,7-dimethyl-2H-chromen-2-one]	143 to 144	20000	20900	1550 ± 323			
Cc1cc(C)cc(N2CCN(CCCCCOc3cc(C)cc4oc(=O)cc(C)c34)CC2)c1 [Compound 1h, 5-(5-(4-(3,5-dimethylphenyl)piperazin-1-yl)pentyloxy)-4,7-dimethyl-2H-chromen-2-one]	104 to 106	200000	198000	1820 ± 636			
Cc1cc(OCCCCCN2CCN(c3cccc(Cl)c3Cl)CC2)c2c(C)cc(=O)oc2c1 [Compound 1i, 5-(5-(4-(2,3-dichlorophenyl)piperazin-1-yl)pentyloxy)-4,7-dimethyl-2H-chromen-2-one]	162 to 163	15800	13700	1450 ± 653			
Cc1cc(OCCCCCN2CCN(c3ccccc3C#N)CC2)c2c(C)cc(=O)oc2c1 [Compound 1j, 5-(5-(4-(2-cyanophenyl)piperazin-1-yl)pentyloxy)-4,7-dimethyl-2H-chromen-2-one]	148 to 149	79400	74700	79 ± 18			
Cc1cc(OCCBr)c2c(C)cc(=O)oc2c1 [Compound 2, 5-(2-bromoethoxy)-4,7-dimethyl-2H-chromen-2-one]	121 to 123						
COc1ccccc1N1CCN(CCOc2cc(C)cc3oc(=O)cc(C)c23)CC1 [Compound 2a, 5-(2-(4-(2-methoxyphenyl)piperazin-1-yl)ethoxy)-4,7-dimethyl-2H-chromen-2-one]	146 to 148	2000	1880 ± 427	1710 ± 582			
Cc1cc(OCCN2CCN(c3ccccc3F)CC2)c2c(C)cc(=O)oc2c1 [Compound 2b, 5-(2-(4-(2-fluorophenyl)piperazin-1-yl)ethoxy)-4,7-dimethyl-2H-chromen-2-one]	121 to 123			2130 ± 662		no activity	did not show any activity; also recorded: no activity
COc1cccc(N2CCN(CCOc3cc(C)cc4oc(=O)cc(C)c34)CC2)c1 [Compound 2c, 5-(2-(4-(3-methoxyphenyl)piperazin-1-yl)ethoxy)-4,7-dimethyl-2H-chromen-2-one]	124 to 125	20000	19100	458 ± 109	468		
Cc1ccc(C)c(N2CCN(CCOc3cc(C)cc4oc(=O)cc(C)c34)CC2)c1 [Compound 2d, 5-(2-(4-(2,5-dimethylphenyl)piperazin-1-yl)ethoxy)-4,7-dimethyl-2H-chromen-2-one]	119 to 120			7320 ± 2080	7410	no activity	did not show any activity; also recorded: no activity
Cc1cc(OCCN2CCN(c3ccccc3Br)CC2)c2c(C)cc(=O)oc2c1 [Compound 2f, 5-(2-(4-(2-bromophenyl)piperazin-1-yl)ethoxy)-4,7-dimethyl-2H-chromen-2-one]	129 to 130			9600 ± 2840		no activity	did not show any activity; also recorded: no activity
CC(=O)c1c(C)cc2oc(=O)cc(C)c2c1OCCCCCBr [Compound 3, 6-acetyl-5-(5-bromopentyloxy)-4,7-dimethyl-2H-chromen-2-one]	78 to 80						
COc1ccccc1N1CCN(CCCCCOc2c(C(C)=O)c(C)cc3oc(=O)cc(C)c23)CC1 [Compound 3a, 6-acetyl-5-(5-(4-(2-methoxyphenyl)piperazin-1-yl)pentyloxy)-4,7-dimethyl-2H-chromen-2-one]		39.8	39.4 ± 3.63	641 ± 128			
CC(=O)c1c(C)cc2oc(=O)cc(C)c2c1OCCBr [Compound 4, 6-acetyl-5-(2-bromoethoxy)-4,7-dimethyl-2H-chromen-2-one]	168 to 169						
CC(=O)c1c(C)cc2oc(=O)cc(C)c2c1OCCN1CCN(c2cc(C)ccc2C)CC1 [Compound 4d, 6-acetyl-5-(2-(4-(2,5-dimethylphenyl)piperazin-1-yl)ethoxy)-4,7-dimethyl-2H-chromen-2-one]		79400	74700	11900			
CC(=O)c1c(C)cc2oc(=O)cc(C)c2c1OCCN1CCN(c2cc(C)cc(C)c2)CC1 [Compound 4h, 6-acetyl-5-(2-(4-(3,5-dimethylphenyl)piperazin-1-yl)ethoxy)-4,7-dimethyl-2H-chromen-2-one]		39800	26800	1920 ± 382			
COc1cccc(N2CCN(CCCCCOc3ccc4c(C)cc(=O)oc4c3C(C)=O)CC2)c1 [Compound 5c, 8-acetyl-7-(5-[4-(3-methoxyphenyl)piperazin-1-yl]penthoxy)-4-methylchromen-2-one]		25100	22900	144 ± 38			
CC(=O)c1c(OCCBr)ccc2c(C)cc(=O)oc12 [Compound 6, 8-acetyl-7-(2-bromoethoxy)-4-methylchromen-2-one]	140 to 142						
